Results taken from paper PMC5509744 (Scientific Reports, 2017).
Read-outs that look alike come from different tables or passages of the source.

Key:
PMM/PGM [1] = molecular target: T1, PMM/PGM (Pseudomonas aeruginosa, UniProt P26276, S108C); test: biochemical
T1 construct: gene algC

PMM/PGM [2] = molecular target: T1, PMM/PGM; conditions: read-out: Apparent dissociation constant; 50 mM MOPS pH 7.4, 1 mM MgCl2, 310 K; unphosphorylated enzyme

T1 sequence (P26276 whole entry S108C): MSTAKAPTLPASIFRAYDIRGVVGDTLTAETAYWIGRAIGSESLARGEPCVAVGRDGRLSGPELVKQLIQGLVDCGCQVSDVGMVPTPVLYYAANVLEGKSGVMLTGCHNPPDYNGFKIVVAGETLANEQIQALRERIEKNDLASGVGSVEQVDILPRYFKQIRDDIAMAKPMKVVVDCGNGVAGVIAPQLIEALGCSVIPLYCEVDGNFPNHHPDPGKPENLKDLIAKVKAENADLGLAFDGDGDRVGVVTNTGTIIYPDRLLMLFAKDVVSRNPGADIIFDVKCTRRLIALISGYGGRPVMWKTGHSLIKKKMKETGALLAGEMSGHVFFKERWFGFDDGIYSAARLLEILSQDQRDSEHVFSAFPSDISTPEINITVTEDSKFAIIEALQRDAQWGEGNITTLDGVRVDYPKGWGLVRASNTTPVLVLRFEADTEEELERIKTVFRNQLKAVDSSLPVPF

Structure (SMILES) | Kd (PMM/PGM [1]) [µM] | Kd (PMM/PGM [2]) [µM]
O=P(O)(O)OC[C@H]1O[C@H](OP(=O)(O)O)[C@H](O)[C@@H](O)[C@@H]1O [G16P, glucose 1,6-bisphosphate] | 839 ± 221 | –
O=P(O)(O)OC[C@H]1OC(O)[C@H](O)[C@@H](O)[C@@H]1O (stereo partly shown) [G6P, glucose 6-phosphate] | – | 20 ± 7
O=P(O)(O)O[C@H]1O[C@H](CO)[C@@H](O)[C@H](O)[C@H]1O [G1P, glucose 1-phosphate] | 198 ± 48 | –
O=P(O)(O)O[C@H]1OC[C@@H](O)[C@H](O)[C@H]1O [X1P, xylose 1-phosphate] | 11 ± 9 | –
